# From ChEMBL document CHEMBL5543149, “Discovery of Novel Aryl Triazolone Dihydropyridines (ATDPs) Targeting Highly Conserved Residue W229 as Promising HIV-1 NNRTIs” (J Med Chem, 2024)
# Key:
# [1] = test system: Human immunodeficiency virus 1; assay: Antiviral activity against wild type HIV-1 IIIB infected in human MT4 cells assessed as protection against virus-induced cytopathic effect incubated for 5 days by MTT assay; format: functional, organism-based; conditions: Human immunodeficiency virus 1, IIIB, MT4, 120 h
# [2] = Cytotoxicity against human MT4 cells assessed as reduction in cell viability by MTT assay; format: toxicity, cell-based
# [3] = Selectivity index, ratio of CC50 for cytotoxicity against human MT4 cells assessed as reduction in cell viability by MTT assay to EC50 for antiviral activity against wild type HIV-1 IIIB infected in human MT4 cells assessed as protection against virus-induced cytopathic effect; format: toxicity, cell-based; conditions: read-out: Ratio CC50/EC50
# [4] = test system: Human immunodeficiency virus 1; assay: Antiviral activity against NNRTI-resistant HIV-1 harboring L100I mutant infected in human MT4 cells assessed as protection against virus-induced cytopathic effect by MTT assay; format: functional, organism-based; conditions: Human immunodeficiency virus 1, MT4
# [5] = test system: Human immunodeficiency virus 1; assay: Antiviral activity against NNRTI-resistant HIV-1 harboring K103N mutant infected in human MT4 cells assessed as protection against virus-induced cytopathic effect by MTT assay; format: functional, organism-based; conditions: Human immunodeficiency virus 1, MT4
# [6] = test system: Human immunodeficiency virus 1; assay: Antiviral activity against NNRTI-resistant HIV-1 harboring Y181C mutant infected in human MT4 cells assessed as protection against virus-induced cytopathic effect by MTT assay; format: functional, organism-based; conditions: Human immunodeficiency virus 1, MT4
# [7] = test system: Human immunodeficiency virus 1; assay: Antiviral activity against NNRTI-resistant HIV-1 harboring Y188L mutant infected in human MT4 cells assessed as protection against virus-induced cytopathic effect by MTT assay; format: functional, organism-based; conditions: Human immunodeficiency virus 1, MT4
# [8] = test system: Human immunodeficiency virus 1; assay: Antiviral activity against NNRTI-resistant HIV-1 harboring E138K mutant infected in human MT4 cells assessed as protection against virus-induced cytopathic effect by MTT assay; format: functional, organism-based; conditions: Human immunodeficiency virus 1, MT4
# [9] = test system: Human immunodeficiency virus 1; assay: Antiviral activity against NNRTI-resistant HIV-1 harboring RES056 mutant infected in human MT4 cells assessed as protection against virus-induced cytopathic effect by MTT assay; format: functional, organism-based; conditions: Human immunodeficiency virus 1, MT4
# [10] = target: Human immunodeficiency virus type 1 reverse transcriptase (Human immunodeficiency virus 1, UniProt Q72547); assay: Inhibition of wild type HIV-1 Reverse transcriptase assessed as reduction of biotin-dUTP incorporation into […] using ABTS as substrate preincubated with compound for 1 hr followed by substrate addition in presence of biotin-labeled dNTPs by ELISA analysis
# [11] = Solubility of compound at pH 2 incubated for 2 hrs by HPLC analysis; format: physicochemical; conditions: buffer
# [12] = Water solubility of compound at pH 7 incubated for 2 hrs by HPLC analysis; format: physicochemical
# [13] = Water solubility of compound at pH 7.4 incubated for 2 hrs by HPLC analysis; format: physicochemical
# [14] = Half life in Sprague-Dawley rat at 2 mg/kg, iv measured upto 24 hrs by LC-MS/MS analysis; format: ADME, organism-based; conditions: in vivo
# [15] = Half life in Sprague-Dawley rat at 10 mg/kg, po measured upto 24 hrs by LC-MS/MS analysis; format: ADME, organism-based; conditions: in vivo
# [16] = Tmax in Sprague-Dawley rat at 2 mg/kg, iv measured upto 24 hrs by LC-MS/MS analysis; format: ADME, organism-based; conditions: in vivo
# [17] = Tmax in Sprague-Dawley rat at 10 mg/kg, po measured upto 24 hrs by LC-MS/MS analysis; format: ADME, organism-based; conditions: in vivo
# [18] = Cmax in Sprague-Dawley rat at 2 mg/kg, iv measured upto 24 hrs by LC-MS/MS analysis; format: ADME, organism-based; conditions: in vivo
# [19] = Cmax in Sprague-Dawley rat at 10 mg/kg, po measured upto 24 hrs by LC-MS/MS analysis; format: ADME, organism-based; conditions: in vivo
# [20] = AUC (0 to t ) in Sprague-Dawley rat at 2 mg/kg, iv measured upto 24 hrs by LC-MS/MS analysis; format: ADME, organism-based; conditions: in vivo
# [21] = AUC (0 to t ) in Sprague-Dawley rat at 10 mg/kg, po measured upto 24 hrs by LC-MS/MS analysis; format: ADME, organism-based; conditions: in vivo
# [22] = AUC (0 to infinity) in Sprague-Dawley rat at 2 mg/kg, iv measured upto 24 hrs by LC-MS/MS analysis; format: ADME, organism-based; conditions: in vivo
# [23] = AUC (0 to infinity) in Sprague-Dawley rat at 10 mg/kg, po measured upto 24 hrs by LC-MS/MS analysis; format: ADME, organism-based; conditions: in vivo
# [24] = Clearance in Sprague-Dawley rat at 2 mg/kg, iv measured upto 24 hrs by LC-MS/MS analysis; format: ADME, organism-based; conditions: in vivo
# [25] = Oral bioavailability in Sprague-Dawley rat at 10 mg/kg measured upto 24 hrs by LC-MS/MS analysis; format: ADME, organism-based; conditions: in vivo
# [26] = test system: Human immunodeficiency virus 1; assay: Antiviral activity against wild type HIV-1 infected in mouse harboring […] mutant at 10 mg/kg, po measured for 24 hrs; format: functional, organism-based; conditions: Human immunodeficiency virus 1, 24 h
# [27] = test system: Human immunodeficiency virus 1; assay: Antiviral activity against wild type HIV-1 infected in mouse harboring RES056 mutant at 10 mg/kg, po measured for 24 hrs; format: functional, organism-based; conditions: Human immunodeficiency virus 1, 24 h
# [28] = test system: Human immunodeficiency virus 1; assay: Antiviral activity against wild type HIV-1 infected in mouse at 10 mg/kg, po measured for 24 hrs; format: functional, organism-based; conditions: Human immunodeficiency virus 1, 24 h
# [29] = test system: Human immunodeficiency virus 1; assay: Antiviral activity against wild type HIV-1 infected in mouse harboring L100I mutant at 10 mg/kg, po measured for 24 hrs; format: functional, organism-based; conditions: Human immunodeficiency virus 1, 24 h
# [30] = test system: Human immunodeficiency virus 1; assay: Antiviral activity against wild type HIV-1 infected in mouse harboring K103N mutant at 10 mg/kg, po measured for 24 hrs; format: functional, organism-based; conditions: Human immunodeficiency virus 1, 24 h
# [31] = test system: Human immunodeficiency virus 1; assay: Antiviral activity against wild type HIV-1 infected in mouse harboring Y181C mutant at 10 mg/kg, po measured for 24 hrs; format: functional, organism-based; conditions: Human immunodeficiency virus 1, 24 h
# [32] = test system: Human immunodeficiency virus 1; assay: Antiviral activity against wild type HIV-1 infected in mouse harboring E138K mutant at 10 mg/kg, po measured for 24 hrs; format: functional, organism-based; conditions: Human immunodeficiency virus 1, 24 h
# [33] = Acute toxicity in Kunming mouse assessed as behavioral abnormalities at 2000 mg/kg, po measured for 7 days; format: organism-based; conditions: in vivo, 168 h, time 7 day
# [34] = Acute toxicity in Kunming mouse assessed as change in body weight at 2000 mg/kg, po measured for 7 days; format: organism-based; conditions: in vivo, 168 h, time 7 day
# [35] = Subacute toxicity in Kunming mouse assessed as lethargy at 50 mg/kg, po administered every 2 days for 2 weeks; format: organism-based; conditions: in vivo, 336 h
# [36] = Subacute toxicity in Kunming mouse assessed as clonic convulsion at 50 mg/kg, po administered every 2 days for 2 weeks; format: organism-based; conditions: in vivo, 336 h
# [37] = Subacute toxicity in Kunming mouse assessed as anorexia at 50 mg/kg, po administered every 2 days for 2 weeks; format: organism-based; conditions: in vivo, 336 h
# [38] = Subacute toxicity in Kunming mouse assessed as ruffled fur at 50 mg/kg, po administered every 2 days for 2 weeks; format: organism-based; conditions: in vivo, 336 h
# [39] = Subacute toxicity in Kunming mouse assessed as heart damage at 50 mg/kg, po administered every 2 days for 2 weeks; format: organism-based; conditions: in vivo, 336 h
# [40] = Subacute toxicity in Kunming mouse assessed as liver damage at 50 mg/kg, po administered every 2 days for 2 weeks; format: organism-based; conditions: in vivo, 336 h
# [41] = Subacute toxicity in Kunming mouse assessed as spleen damage at 50 mg/kg, po administered every 2 days for 2 weeks; format: organism-based; conditions: in vivo, 336 h
# [42] = Subacute toxicity in Kunming mouse assessed as lung damage at 50 mg/kg, po administered every 2 days for 2 weeks; format: organism-based; conditions: in vivo, 336 h
# [43] = Subacute toxicity in Kunming mouse assessed as kidney damage at 50 mg/kg, po administered every 2 days for 2 weeks; format: organism-based; conditions: in vivo, 336 h
smiles,measurement,setting,value
Cn1c(Cn2ccc(C(F)(F)F)c(Oc3cc(Cl)cc(-c4ccncc4)c3)c2=O)n[nH]c1=O,EC50,[1],15 nM
same,CC50,[2],70500 nM
same,selectivity ratio,[3],4700
same,EC50,[4],12 nM
same,EC50,[5],22 nM
same,EC50,[6],40 nM
same,EC50,[7],1320 nM
same,EC50,[8],39 nM
same,EC50,[9],962 nM
same,IC50,[10],80 nM
Cn1c(Cn2ccc(C(F)(F)F)c(Oc3cc(Cl)cc(-c4cc5ccccc5s4)c3)c2=O)n[nH]c1=O,EC50,[1],12 nM
same,CC50,[2],101000 nM
same,selectivity ratio,[3],8420
same,EC50,[4],12 nM
same,EC50,[5],18 nM
same,EC50,[6],38 nM
same,EC50,[7],639 nM
same,EC50,[8],17 nM
same,EC50,[9],185 nM
same,IC50,[10],40 nM
Cc1ccc(-c2cc(Cl)cc(Oc3c(C(F)(F)F)ccn(Cc4n[nH]c(=O)n4C)c3=O)c2)cc1,EC50,[1],8 nM
same,CC50,[2],94200 nM
same,selectivity ratio,[3],11800
same,EC50,[4],13 nM
same,EC50,[5],17 nM
same,EC50,[6],29 nM
same,EC50,[7],1350 nM
same,EC50,[8],37 nM
same,EC50,[9],344 nM
same,IC50,[10],30 nM
COC(=O)c1ccc(-c2cc(Cl)cc(Oc3c(C(F)(F)F)ccn(Cc4n[nH]c(=O)n4C)c3=O)c2)cc1,EC50,[1],11 nM
same,CC50,[2],47900 nM
same,selectivity ratio,[3],4360
same,EC50,[4],11 nM
same,EC50,[5],19 nM
same,EC50,[6],17 nM
same,EC50,[7],760 nM
same,EC50,[8],16 nM
same,EC50,[9],177 nM
same,IC50,[10],30 nM
Cn1c(Cn2ccc(C(F)(F)F)c(Oc3cc(Cl)cc(-c4cncnc4)c3)c2=O)n[nH]c1=O,EC50,[1],10 nM
same,CC50,[2],64700 nM
same,selectivity ratio,[3],6470
same,EC50,[4],19 nM
same,EC50,[5],42 nM
same,EC50,[6],43 nM
same,EC50,[7],1480 nM
same,EC50,[8],25 nM
same,EC50,[9],91 nM
same,IC50,[10],40 nM
Cn1c(Cn2ccc(C(F)(F)F)c(Oc3cc(Cl)cc(-c4ccc(Br)cc4)c3)c2=O)n[nH]c1=O,EC50,[1],9 nM
same,CC50,[2],118000 nM
same,selectivity ratio,[3],13100
same,EC50,[4],11 nM
same,EC50,[5],13 nM
same,EC50,[6],18 nM
same,EC50,[7],703 nM
same,EC50,[8],13 nM
same,EC50,[9],59 nM
same,IC50,[10],40 nM
same,solubility at 2 h,[11],107 µg/mL
same,solubility at 2 h,[12],45.7 µg/mL
same,solubility at 2 h,[13],32.2 µg/mL
same,half-life,[14],4.49 h
same,half-life,[15],5.09 h
same,Tmax,[16],3 min
same,Tmax,[17],4 h
same,Cmax,[18],1950 ng/mL
same,Cmax,[19],3340 ng/mL
same,AUC(0-t) at 24 h,[20],5490 ng·h/mL
same,AUC(0-t) at 24 h,[21],39600 ng·h/mL
same,AUC(0-inf),[22],7670 ng·h/mL
same,AUC(0-inf),[23],41800 ng·h/mL
same,clearance,[24],4.35 mL/min/kg
same,bioavailability,[25],109%
same,EC50,[26],703 nM
same,EC50,[27],56 nM
same,EC50,[28],9 nM
same,EC50,[29],11 nM
same,EC50,[30],13 nM
same,EC50,[31],16 nM
same,EC50,[32],13 nM
same,Activity,[33],Non-Toxic
same,Activity,[34],Non-Toxic
same,Activity,[35],Non-Toxic
same,Activity,[36],Non-Toxic
same,Activity,[37],Non-Toxic
same,Activity,[38],Non-Toxic
same,Activity,[39],Non-Toxic
same,Activity,[40],Non-Toxic
same,Activity,[41],Non-Toxic
same,Activity,[42],Non-Toxic
same,Activity,[43],Non-Toxic
